Counter-ions that a name gives are not always drawn.
Assays:
[1] = target: T1, human 5-HT1A receptors (Homo sapiens, UniProt P08908); test: displacement of [3H] 8-OH-DPAT from the 5-HT1A serotonin receptor; format: binding; details: CHO cells stably transfected with human 5-HT1A receptors
T1 construct: expressed in transfected cells; host or cells: CHO cells
T1 sequence (P08908 1-422): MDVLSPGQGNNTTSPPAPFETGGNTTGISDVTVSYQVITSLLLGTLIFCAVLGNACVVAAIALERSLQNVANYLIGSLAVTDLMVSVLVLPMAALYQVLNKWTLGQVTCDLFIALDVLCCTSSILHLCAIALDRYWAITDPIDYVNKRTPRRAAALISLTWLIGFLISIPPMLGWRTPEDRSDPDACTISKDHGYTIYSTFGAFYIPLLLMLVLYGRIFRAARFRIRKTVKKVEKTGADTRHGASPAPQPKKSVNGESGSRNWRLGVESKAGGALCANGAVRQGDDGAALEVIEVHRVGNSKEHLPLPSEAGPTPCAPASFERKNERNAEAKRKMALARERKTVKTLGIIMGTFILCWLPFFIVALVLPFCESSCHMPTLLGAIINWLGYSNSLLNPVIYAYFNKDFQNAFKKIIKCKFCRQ

[2] = target: 5-HT transporter (Rattus norvegicus, UniProt P31652); test: Rat Brain 3H-Paroxetine Binding Assay (RB 5HT Transporter); details: rat frontal cortical membranes; 3H-paroxetine 0.1 nM, 60 min, 25° C.
Sequence of 5-HT transporter (P31652 whole entry): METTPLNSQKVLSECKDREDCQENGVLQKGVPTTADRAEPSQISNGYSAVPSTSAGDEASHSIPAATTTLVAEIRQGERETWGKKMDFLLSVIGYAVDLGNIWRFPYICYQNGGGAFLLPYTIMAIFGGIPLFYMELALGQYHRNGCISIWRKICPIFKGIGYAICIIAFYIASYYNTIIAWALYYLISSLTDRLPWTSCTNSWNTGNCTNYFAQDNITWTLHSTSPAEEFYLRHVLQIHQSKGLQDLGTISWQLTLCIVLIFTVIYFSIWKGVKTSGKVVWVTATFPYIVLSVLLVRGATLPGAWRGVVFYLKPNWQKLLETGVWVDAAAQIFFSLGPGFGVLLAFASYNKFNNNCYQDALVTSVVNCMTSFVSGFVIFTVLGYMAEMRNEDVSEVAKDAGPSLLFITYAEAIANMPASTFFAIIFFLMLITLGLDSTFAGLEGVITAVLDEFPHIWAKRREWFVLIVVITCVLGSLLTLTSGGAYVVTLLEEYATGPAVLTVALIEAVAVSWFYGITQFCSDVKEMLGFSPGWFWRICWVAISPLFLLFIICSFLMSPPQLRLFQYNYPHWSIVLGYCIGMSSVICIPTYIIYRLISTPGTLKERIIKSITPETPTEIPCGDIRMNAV
From the text: Rat Brain ^3H-Paroxetine Binding Assay (RB 5HT Transporter):
This assay was used to determine a compound's affinity of the 5-HT transporter.
All reactions were terminated by the addition of ice cold Tris buffer followed by rapid filtration using a Tom Tech filtration device to separate bound from free ^3H-paroxetine.

| SMILES | Ki [1] [nM] | melting point [°C] | Ki [2] [nM] |
| --- | --- | --- | --- |
| COc1cc(N2CCN([C@H]3CC[C@H](c4cc5ccccc5s4)CC3)CC2)c2ncccc2c1 [Compound 71] | 162 | 193 to 194 |  |
| COc1cccc2c(C(C)CN3CCN(c4cc(Cl)cc5cccnc45)CC3)coc12 (stereo not shown) (as salt: HCl) [Compound 33, 8-{4-[2-(7-methoxy-1-benzofuran-3-yl)propyl]-1-piperazinyl}-6-chloro-quinoline] |  | 55 to 58 |  |
| CC(CN1CCN(c2cc(Cl)cc3cccnc23)CC1)c1coc2ccccc12 (stereo not shown) [Compound 28, 8-{4-[2-(1-benzofuran-3-yl)propyl]-1-piperazinyl}-6-chloro-quinoline] | 110 |  | 73 |
| COc1ccc2occ([C@H]3CC[C@@H](N4CCN(c5ccc(Cl)c6cccnc56)CC4)CC3)c2c1 [Compound 65, 5-chloro-8-{4-[4-cis(5-methoxy-1-benzofuran-3-yl)cyclohexyl]piperazin-1-yl}quinoline] | 10.1 |  | 53 |
| COc1cccc2c(C(C)CN3CCN(c4cccc5cccnc45)CC3)coc12 (stereo not shown) (as salt: HCl) [Compound 31, 8-{4-[2-(7-methoxy-1-benzofuran-3-yl)propyl]-1-piperazinyl}quinoline] |  | 192 |  |
| COc1cc(N2CCN([C@H]3CC[C@H](c4csc5ccc(F)cc54)CC3)CC2)c2ncccc2c1 [Compound 50, 6-methoxy-8-{4-[4-trans(5-fluoro-1-benzothien-3-yl)cyclohexyl]piperazin-1-yl}quinoline] | 25.9 |  | 10 |

The next lines start with the values.

| Ki [1] [nM] | melting point [°C] | Ki [2] [nM] | SMILES |
| --- | --- | --- | --- |
|  | 55 |  | Fc1cc(N2CCN(CCc3coc4ccc(F)cc34)CC2)c2ncccc2c1 (as salt: HCl) [Compound 17, 8-{4-[2-(5-fluoro-1-benzofuran-3-yl)ethyl]-1-piperazinyl}-6-fluoro-quinoline] |
| 0.37 |  | 33 | COc1ccc2c(CCN3CCN(c4cccc5cccnc45)CC3)coc2c1 [Compound 9, 8-{4-[2-(6-methoxy-1-benzofuran-3-yl)ethyl]-1-piperazinyl}-quinoline] |
| 41.3 |  | 64 | Clc1cc(N2CCN(CCc3coc4ccc(Cl)cc34)CC2)c2ncccc2c1 [Compound 13, 8-{4-[2-(5-chloro-1-benzofuran-3-yl)ethyl]-1-piperazinyl}-6-chloro-quinoline] |
| 0.23 |  | 4.16 | COc1cc(N2CCN(C(C)Cc3coc4c(OC)cccc34)CC2)c2ncccc2c1 (stereo not shown) [Compound 36, 6-methoxy-8-{4-[2-(7-methoxy-1-benzofuran-3-yl)-1-methylethyl)piperazin-1-yl]quinoline] |
|  | 248 |  | COc1cccc2c(CCN3CCN(c4cc(Cl)cc5cccnc45)CC3)coc12 (as salt: HCl) [Compound 20, 8-{4-[2-(7-methoxy-1-benzofuran-3-yl)ethyl]-1-piperazinyl}-6-chloro-quinoline] |
| 2.48 |  | 60 | COc1cc(N2CCN(CCc3coc4ccccc34)CC2)c2ncccc2c1 [Compound 4, 8-{4-[2-(1-benzofuran-3-yl)ethyl]-1-piperazinyl}-6-methoxyquinoline] |
| 0.34 |  | 5.5 | COc1ccc2occ(CC(C)N3CCN(c4cc(Cl)cc5cccnc45)CC3)c2c1 (stereo not shown) [Compound 39, 6-chloro-8-{4-[2-(5-methoxy-1-benzofuran-3-yl)-1-methylethyl)piperazin-1-yl]quinoline] |
|  | 80 |  | COc1cc(N2CCN(CCc3coc4ccc(F)cc34)CC2)c2ncccc2c1 (as salt: HCl) [Compound 16, 8-{4-[2-(5-fluoro-1-benzofuran-3-yl)ethyl]-1-piperazinyl}-6-methoxy-quinoline] |
| 14.4 |  | 16.5 | COc1ccc2occ(CCN3CCN(c4cc(F)cc5cccnc45)CC3)c2c1 [Compound 26, 8-{4-[2-(5-methoxy-1-benzofuran-3-yl)ethyl]-1-piperazinyl}-6-fluoro-quinoline] |

Reference: patent US7276603B2, “Benzofuranyl-and benzothienyl-piperazinyl quinolines and methods of their use” (Wyeth, priority 2003, dated 2007)
